Like-named read-outs stand apart in the source and are kept apart here.

In the assay the test system is CHO 2F1813 cells. Type of assay: cell-based, Chinese hamster.
The mark [1] stands for this setting: 2F1813 strain compared with SV40-promoter control strain 5K95, FIG. 3 to FIG. 6.

As to `CCCCC(CC)COC(=O)c1ccccc1C(=O)OCC(CC)CCCC` (stereo not shown) [Di(ethylhexyl)phthalate], the “Induction of the β-galactosidase activity expression” value (shortened to “Induction”) under setting [1] is reported as “observed only in the 2F1813 stain”.
On the same count and under the same terms, the value for `[Cd]` [Cadmium] was “observed only in the 2F1813 stain”.
On the same count and under the same terms, the result for `Clc1ccccc1Cl` [o-Dichlorobenzene] reads “observed only in the 2F1813 stain”.
`C1COCCO1` [1,4-Dioxane]: the “Fluorescence value (β-galactosidase inducing activity)” value is given as 0˜27 RU.
For the molecule Nonylphenol A, the “Induction” value under setting [1] was “observed only in the 2F1813 stain”.
For `[Ni]` [Nickel], the “Fluorescence value (β-galactosidase inducing activity)” value is on record as 1.3˜18 RU and the “Induction” value was “observed only in the 2F1813 stain”.
